From US20260062426A1, “CYCLIN DEPENDENT KINASE DEGRADERS AND METHODS OF USE THEREOF” (Differentiated Therapeutics Inc, priority 2023, published 2026)

Legend:
Type in all cases: cell-based
[1] = target: T1, CDK9 (Homo sapiens, UniProt P50750); assay: CDK9 HIBIT PQ (protein quantification), degradation; settings: for Dmax: Max = Maximum; for DC50: PQ = Protein Quantification
T1 construct: host or cells: HEK293
Summary of the method: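 Maximal degradation, Dmax and DC50 come from HiBiT assay readings of CDK9 protein in compound-treated HEK293 cells that express HiBiT-tagged CDK9. The cells were grown in DMEM with 10% FBS and seeded at 1.6×10^5 cells/well in 50 uL in 384-well plates before overnight incubation at 37° C and 5% CO2. Cells treated with 0.1% DMSO set the high control, and medium only set the low control.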

[2] = target: T2, CDK2 (Homo sapiens, UniProt P24941); assay: CDK2 HIBIT PQ (protein quantification), degradation; settings: for CDK2 HIBIT PQ Max (%): Max = Maximum; for DC50: PQ = Protein Quantification
T2 construct: host or cells: HEK293
Summary of the method: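 Maximal degradation and DC50 were obtained from luminescence readings of HEK293 cells expressing HiBiT-tagged CDK2. The cells, grown in DMEM with 10% FBS, were seeded at 1.6×10^5 cells/well in 50 uL in 384-well plates and incubated overnight at 37° C and 5% CO2 before 6 hours of compound treatment. HiBiT reagent (Nano-Glo HiBiT lytic buffer, lytic substrate, LgBiT protein) was then added at 20 μL, and plates were shaken for 20 minutes at room temperature before reading on an EnVision, against a high control of 0.1% DMSO and a low control of medium only.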

[3] = target: T3, CCNE1 (Homo sapiens, UniProt P24864+P24941); assay: CCNE1 HIBIT PQ (protein quantification), degradation; settings: for CCNE1 HIBIT PQ Max (%): Max = Maximum; for DC50: PQ = Protein Quantification
T3 construct: host or cells: HEK293
Summary of the method: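 HEK293 cells with HiBiT-tagged CCNE1 were cultured in EMEM containing 10% FBS, plated at 1.6×10⁵ cells/well in 50 uL in 384-well plates and left overnight at 37° C with 5% CO₂. After 6 hours of compound exposure, a HiBiT assay measured CCNE1 protein, with 0.1% DMSO-treated cells as the high control and medium alone as the low control. DC50 and maximal degradation came from these readings.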

T1 sequence (P50750 whole entry): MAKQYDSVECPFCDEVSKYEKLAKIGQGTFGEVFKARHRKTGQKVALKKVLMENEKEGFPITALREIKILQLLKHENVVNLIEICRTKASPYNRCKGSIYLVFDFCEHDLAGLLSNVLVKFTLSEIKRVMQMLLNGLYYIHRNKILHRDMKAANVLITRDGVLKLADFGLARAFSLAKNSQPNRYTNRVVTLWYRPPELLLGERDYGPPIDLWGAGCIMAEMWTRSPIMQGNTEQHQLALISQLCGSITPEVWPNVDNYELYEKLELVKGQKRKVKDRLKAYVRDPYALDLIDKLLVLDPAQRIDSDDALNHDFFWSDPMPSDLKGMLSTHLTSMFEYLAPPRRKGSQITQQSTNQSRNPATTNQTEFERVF

`Cc1cc(S(=O)(=O)N(C)CCCN2CCC(c3ccc4c(c3)n(C)c(=O)n4C3CCC(=O)NC3=O)CC2)cc(F)c1Nc1nc2c(OC(C)C)c(-c3cn[nH]c3)ncn2n1` (racemic) [Compound 57] was tested, and the Dmax [1] was 82%, the DC50 [1] was 2.25 nM and the “CDK2 HIBIT PQ Max (%)” value [2] was 90%. The DC50 [2] was 0.3 nM, the “CCNE1 HIBIT PQ Max (%)” value [3] was 76% and the DC50 [3] was 0.62 nM.
`CC(C)Oc1c(-c2cn[nH]c2)ncn2nc(Nc3c(F)cc(S(=O)(=O)N(C)CCCN4CCC(c5ccc6c(c5)n(C)c(=O)n6C5CCC(=O)NC5=O)CC4)cc3F)nc12` (racemic) [Compound 58] was tested, and the Dmax [1] was 86%, the DC50 [1] was 1.51 nM and the “CDK2 HIBIT PQ Max (%)” value [2] was 94%. For the same compound, the DC50 [2] was 0.1 nM, the “CCNE1 HIBIT PQ Max (%)” value [3] was 86% and the DC50 [3] was 0.39 nM.
With `Cc1cc(Nc2nc3c(OC(C)C)c(-c4cn[nH]c4)ncn3n2)c(F)cc1S(=O)(=O)N(C)CCCN1CCC(c2ccc3c(c2)n(C)c(=O)n3C2CCC(=O)NC2=O)CC1` (racemic) [Compound 59] the Dmax [1] was 68%, the DC50 [1] was 1.34 nM and the “CDK2 HIBIT PQ Max (%)” value [2] was 86%. The DC50 [2] was 0.1 nM, the “CCNE1 HIBIT PQ Max (%)” value [3] was 66% and the DC50 [3] was 0.4 nM.
In the case of `CC(C)Oc1c(-c2cn[nH]c2)ncn2nc(Nc3cc(F)c(S(=O)(=O)N(C)CCCN4CCC(c5ccc6c(c5)n(C)c(=O)n6C5CCC(=O)NC5=O)CC4)cc3F)nc12` (racemic) [Compound 60], the Dmax [1] was 75%, the DC50 [1] was 1.52 nM and the “CDK2 HIBIT PQ Max (%)” value [2] was 93%. The “CCNE1 HIBIT PQ Max (%)” value [3] was 74% and the DC50 [3] was 0.45 nM.
`CC(C)Oc1c(-c2cn[nH]c2)ncn2nc(Nc3ccc(S(=O)(=O)N(C)CCCN4CCC(c5ccc6c(c5)n(C)c(=O)n6C5CCC(=O)NC5=O)CC4)c4cnccc34)nc12` (racemic) [Compound 61] was tested, and the Dmax [1] was 78%, the DC50 [1] was 3.2 nM and the “CDK2 HIBIT PQ Max (%)” value [2] was 86%. The DC50 [2] was 0.3 nM, the “CCNE1 HIBIT PQ Max (%)” value [3] was 72% and the DC50 [3] was 1.55 nM.
`CC(C)Oc1c(-c2cn[nH]c2)ncn2nc(Nc3ccc(S(=O)(=O)N(C)CCCN4CCN(c5ccc6c(c5)n(C)c(=O)n6C5CCC(=O)NC5=O)CC4(C)C)cc3F)nc12` (racemic) [Compound 67] was tested, and the Dmax [1] was 91%, the DC50 [1] was 1.52 nM and the “CDK2 HIBIT PQ Max (%)” value [2] was 92%. For the same compound, the DC50 [2] was less than 0.152 nM, the “CCNE1 HIBIT PQ Max (%)” value [3] was 73% and the DC50 [3] was 1.08 nM.
In the case of `CC(C)Oc1c(-c2cn[nH]c2)ncn2nc(Nc3ccc(S(=O)(=O)N4CC5(CCCN(CC6CCN(c7cccc8c7n(C)c(=O)n8C7CCC(=O)NC7=O)CC6)C5)C4)cc3F)nc12` (racemic) [Compound 76], the Dmax [1] was 46%, the “CDK2 HIBIT PQ Max (%)” value [2] was 87% and the DC50 [2] was 5.8 nM. The “CCNE1 HIBIT PQ Max (%)” value [3] was 40%.
In the case of `CC(C)Oc1c(-c2cn[nH]c2)ncn2nc(Nc3ccc(S(=O)(=O)c4cccc(C(C)N5CCC(c6ccc7c(N8CCC(=O)NC8=O)nn(C)c7c6)CC5)c4)cc3F)nc12` (racemic) [Compound 85], the Dmax [1] was 82%, the DC50 [1] was 12 nM and the “CDK2 HIBIT PQ Max (%)” value [2] was 93%. The DC50 [2] was 1.5 nM, the “CCNE1 HIBIT PQ Max (%)” value [3] was 80% and the DC50 [3] was 9.64 nM.
In the case of `CC(C)Oc1c(-c2cn[nH]c2)ncn2nc(Nc3ccc(S(=O)(=O)N4CCCC(CN5CC(c6ccc7c(N8CCC(=O)NC8=O)nn(C)c7c6)C5)C4)cc3F)nc12` (racemic) [Compound 86], the Dmax [1] was 20%, the “CDK2 HIBIT PQ Max (%)” value [2] was 56% and the DC50 [2] was 1.3 nM. The “CCNE1 HIBIT PQ Max (%)” value [3] was 38%.
